“And” between values parts separate entries of the source, which are not always exact repeats. Equal values may be shown once. “Also recorded” adds a separate entry of the source. Read-outs that look alike come from different tables or passages of the source.
Tests used:
[1] = Kinetics of distribution in OctOH/pH 7.4 and IPM/pH 7.4 (1-5 h); assay type: physicochemical
Description: Distribution coefficients were measured at 1, 2, 3, 4, and 5 h in OctOH/pH 7.4 and IPM/pH 7.4 at 310.15 K to assess the kinetics of HML distribution.

[2] = Permeability in Franz diffusion cell, regenerated cellulose membrane; assay type: in vitro ADME; conditions: RC membrane, pH 7.4, 310.15 K
Description: (§1) Permeability coefficients were measured in a vertical type Franz diffusion cell (PermeGear, Inc., Hellertown, PA, USA) maintained at 37 °C, with an effective diffusion area of 0.785 cm^2. The volumes of the donor (lower) and the acceptor (upper) compartments were 7 mL and 2 mL, respectively. Three artificial membranes were used in the study: Regenerated cellulose (RC): Standard Grade RC Dialysis Membrane with a molecular weight cut-off (MWCO) of 12–14 kDa and a flat width of 45 mm; PermeaPad barrier (PP): A commercially available barrier (PHABIOC, Fritz-Souchon-Str. 27, 32339 Espelkamp, Germany; www.innome.de), originally proposed by di Cagno et al.; Polydimethylsiloxane-polycarbonate membrane (PDS): A “Carbosil” membrane composed of 55% polydimethylsiloxane and 45% polycarbonate (PENTAMED, Moscow, Russia; https://medpolymer.ru/).
(§2) A solution of HML in pH 7.4 (7 mL) was placed into the donor chamber of a Franz cell. The acceptor compartment was filled with pure buffer pH 7.4 (1 mL). Over a period of 5 h, 0.5 mL samples were withdrawn from the acceptor compartment at 30 min intervals and replaced with an equal volume of fresh pH 7.4 buffer. The sample concentrations were determined by UV-Vis spectroscopy (Cary-50, Varian, Palo Alto, CA, USA; Software Version 3.00 (339)) or by HPLC (for experiments involving the polydimethylsiloxane-polycarbonate membrane). The cumulative amount of drug permeated through the membrane was plotted as a function of time. The flux was determined from the slope of the linear portion of each curve. The permeability coefficient was calculated using the following equation:(4) Papp=J/C0 where J is the flux, and C0 is the concentration of HML in the donor solution. A reverse dialysis setup was employed, where the lower chamber served as the donor compartment and was filled with the drug solution. Sink conditions were maintained in all experiments, meaning the drug concentration in the acceptor compartment never exceeded 10% of its concentration in the donor compartment at any time according the recommendations proposed in [18].

[3] = Permeability in Franz diffusion cell, PermeaPad barrier; assay type: in vitro ADME
Description: as §1, §2

Caco-2 monolayers = experiment: Literature permeability across Caco-2 monolayers; assay type: in vitro ADME; conditions: literature Caco-2 (ref 12) vs PP Papp
MDCK cells = experiment: Literature permeability across MDCK cells; assay type: in vitro ADME; conditions: literature MDCK (ref 12) vs PP Papp
[4] = Dissolution thermodynamics from van't Hoff plots of solubility; assay type: physicochemical
Source text: (§3) The calculation of the thermodynamic parameters for the solubility and distribution processes was based on component concentrations expressed in terms of mole fractions. The standard calculation procedure and the respective equations are presented in the Supplementary Materials (Section S4).

[5] = Transfer thermodynamics from van't Hoff plots of distribution coefficients; assay type: physicochemical; conditions: 298.15 K
Source text: as §3

[6] = undefined temperature, cited from earlier work

With `COc1ccc2c3c([nH]c2c1)C(C)=NCC3` [HML, Harmaline] the “log partition 1-octanol / buffer pH 7.4” value (shake-flask; pH 7.4, 293.15) was 0.973 log10, the “log partition n-hexane / buffer pH 7.4” value (shake-flask; pH 7.4, 293.15) was −1.929 log10 and the “log partition 1-octanol / buffer pH 7.4” value (shake-flask; pH 7.4, 298.15) was 1.016 log10. The “log partition n-hexane / buffer pH 7.4” value (shake-flask; pH 7.4, 298.15) was −1.899 log10, the “log partition 1-octanol / buffer pH 7.4” value (shake-flask; pH 7.4, 303.15) was 1.066 log10 and the “log partition n-hexane / buffer pH 7.4” value (shake-flask; pH 7.4, 303.15) was −1.833 log10. The “log partition 1-octanol / buffer pH 7.4” value (shake-flask; pH 7.4, 308.15) was 1.165 log10, the “log partition n-hexane / buffer pH 7.4” value (shake-flask; pH 7.4, 308.15) was −1.765 log10 and the “log partition 1-octanol / buffer pH 7.4” value (shake-flask; pH 7.4, 310.15) was 1.290 log10. For the same compound, the “log partition isopropyl myristate / buffer pH 7.4” value (shake-flask; pH 7.4, 310.15) was −0.602 log10, the “log partition n-hexane / buffer pH 7.4” value (shake-flask; pH 7.4, 310.15) was −1.658 log10 and the “log partition 1-octanol / buffer pH 7.4” value (shake-flask; pH 7.4, 313.15) was 1.345 log10. For the same compound, the “log partition n-hexane / buffer pH 7.4” value (shake-flask; pH 7.4, 313.15) was −1.605 log10, the “fold-change between saturation and 5 h distribution coefficients” value ([1]; IPM/pH 7.4, 310.15 K) was 1.36 fold and the “increase of distribution from 1 to 5 h” value ([1]; IPM/pH 7.4, 310.15 K) was 1.3 fold. The “fold-change between saturation and 5 h distribution coefficients” value ([1]; OctOH/pH 7.4, 310.15 K) was 1.38 fold, the “increase of distribution from 1 to 5 h” value ([1]; OctOH/pH 7.4, 310.15 K) was 1.2 fold and the logPapp [2] was −4.31. The “steady state flux J” value ([2]; C0 2.11 × 10^−3 M) was 1.04 × 10^−4 µmol∙cm^−2∙s^−1, the Papp at 5 h ([2]; read-out: permeability coefficient Papp) was 49.3 ×10⁻⁶ cm/s and the logPapp ([3]; PP barrier, pH 7.4, 310.15 K) was −4.43. The “steady state flux J” value ([3]; PP barrier, pH 7.4, 310.15 K, C0 2.23 × 10^−3 M) was 8.28 × 10^−5 µmol∙cm^−2∙s^−1, the Papp at 5 h ([3]; PP barrier, pH 7.4, 310.15 K, read-out: permeability coefficient Papp) was 37.1 ×10⁻⁶ cm/s and the “permeability classification (Di Cagno et al.)” value ([3]; PP barrier, high permeability if Papp > 2.04∙10^−5 cm∙s^−1) was “highly permeable; also recorded: high permeated substance”. The “permeability coefficient for PP, fold lower than for RC” value ([3]; pH 7.4, 310.15 K) was 1.3 fold, the “maximum difference between Caco-2 model permeability and PermeaPad result” value (Caco-2 monolayers) was at most 1.4 fold and the “MDCK permeability coefficient, fold lower than PermeaPad result” value (MDCK cells) was “up to 2.3 fold”. For the same compound, the “Gibbs energy of solution ΔGsol0” value ([4]; Hex, 298.15 K) was 6.84 kcal/mol, the “enthalpy share of the total free energy change of dissolution” value ([4]; Hex, 298.15 K) was 84% and the “entropy share of the total free energy change of dissolution” value ([4]; Hex, 298.15 K) was 16%. For the same compound, the “Gibbs energy of solution ΔGsol0” value ([4]; OctOH, 298.15 K) was 2.89 kcal/mol, the “Gibbs energy of solution ΔGsol0” value ([4]; pH 7.4, 298.15 K) was 5.66 kcal/mol and the TΔStr0 ([5]; Hex→OctOH) was 21.4±1.9 kJꞏmol-1. For the same compound, the “distribution coefficient Dx (mole fraction scale)” value ([5]; Hex→OctOH) was 993.14, the “enthalpy contribution to transfer (ΔHtr0 share)” value ([5]; Hex→OctOH) was 16.7% and the “entropy contribution to transfer (TΔStr0 share)” value ([5]; Hex→OctOH) was 83.3%. For the same compound, the ΔGtr0 ([5]; Hex→OctOH) was -17.1±0.3 kJꞏmol-1 and −17.1 kJꞏmol-1, the ΔHtr0 ([5]; Hex→OctOH) was 4.3±0.3 kJꞏmol-1 and the TΔStr0 ([5]; pH 7.4→Hex) was 23.4±1.0 kJꞏmol-1. The “enthalpy contribution to transfer (ΔHtr0 share)” value ([5]; pH 7.4→Hex) was 55.3%, the “entropy contribution to transfer (TΔStr0 share)” value ([5]; pH 7.4→Hex) was 44.7% and the ΔHtr0 ([5]; pH 7.4→Hex) was 28.9±0.7 kJꞏmol-1. For the same compound, the TΔStr0 ([5]; pH 7.4→OctOH) was 44.4±1.3 kJꞏmol-1, the “distribution coefficient Dx (mole fraction scale)” value ([5]; pH 7.4→OctOH) was 103.10 and the “enthalpy contribution to transfer (ΔHtr0 share)” value ([5]; pH 7.4→OctOH) was 42.6%. For the same compound, the “entropy contribution to transfer (TΔStr0 share)” value ([5]; pH 7.4→OctOH) was 57.4%, the ΔGtr0 ([5]; pH 7.4→OctOH) was -11.5±0.2 kJꞏmol-1 and −11.5 kJꞏmol-1 and the ΔHtr0 ([5]; pH 7.4→OctOH) was 32.9±0.3 kJꞏmol-1. The “distribution coefficient n-heptane/aqueous (pH 7.4)” value ([6]; ref 19) was 0.05 and the “distribution coefficient n-heptane/aqueous (pH 7.4)” value ([6]; ref 20) was 0.11.

Reference: PMC12844998, “Bridging the Knowledge Gap in Harmaline’s Pharmacological Properties: A Focus on Thermodynamics and Kinetics” (Pharmaceutics, 2025)
